Reference: PubChem BioAssay AID1996
In brackets after ≈: the same amount, converted by molar mass.

conditions: buffer; pH 7.4; 200.0 µM

**Q.** For `c1cc2c(cc1CN1CCNCC1)OCO2`, which solubility kinetic is on record?
**A.** Its solubility kinetic is 31.8 µg/mL (≈ 144 µM).

**Q.** For `Cc1cccc(CNC(=O)C2CCC(=O)N(C3CC3)C2)c1` (stereo unspecified), which solubility kinetic is on record?
**A.** The solubility kinetic was > 43 µg/mL.

**Q.** With `O=C(NCCc1ccc(O)c(O)c1)C1COc2ccccc2O1` (stereo unspecified) as the compound, how does the solubility kinetic read?
**A.** Its solubility kinetic is > 47.3 µg/mL.

**Q.** With `Cn1cnc2c1c(=O)n(Cc1ccc(Cl)cc1Cl)c(=O)n2C` as the compound, how does the solubility kinetic read?
**A.** Its solubility kinetic is > 50.9 µg/mL.

**Q.** With `CCc1ccc(CCC(=O)Nc2ccc(C(=O)O)cc2)o1` as the compound, how does the solubility kinetic read?
**A.** Its solubility kinetic is > 43.1 µg/mL.

**Q.** For `CCOC(=O)c1ccccc1NC(=O)C1CCCO1` (stereo unspecified), which solubility kinetic is on record?
**A.** The solubility kinetic was > 39.5 µg/mL.

**Q.** Which solubility kinetic does the source give for `Cn1cc(C(=O)C(=O)N2CCc3ccccc32)c2ccccc21` here?
**A.** The solubility kinetic was 0.8 µg/mL (≈ 2.63 µM).

**Q.** For `CCN(CC)C(=O)CSc1nc(-c2ccccc2)ccc1C#N`, which solubility kinetic is on record?
**A.** Its solubility kinetic is 0.6 µg/mL (≈ 1.84 µM).

**Q.** For `Cc1c([N+](=O)[O-])c([N+](=O)[O-])nn1CC(=O)N1CCOCC1`, which solubility kinetic is on record?
**A.** Its solubility kinetic is > 44.9 µg/mL.

**Q.** For `CC(C)C(C)NC(=O)COc1ccc(OCc2ccccc2)cc1` (stereo unspecified), which solubility kinetic is on record?
**A.** The solubility kinetic was 1.9 µg/mL (≈ 5.8 µM).

**Q.** For `O=C(Nc1cccc(F)c1)c1ccco1`, which solubility kinetic is on record?
**A.** Its solubility kinetic is 26.7 µg/mL (≈ 130 µM).

**Q.** For `Cc1cccc(NS(=O)(=O)c2ccc3[nH]c(=O)cc(C(=O)O)c3c2)c1`, which solubility kinetic is on record?
**A.** The solubility kinetic was 48.2 µg/mL (≈ 134 µM).

**Q.** For `Cc1cc(C)c2c(CN3CC(C)OC(C)C3)cc(=O)oc2c1C` (stereo unspecified), which solubility kinetic is on record?
**A.** Its solubility kinetic is 13.6 µg/mL (≈ 43.1 µM).

**Q.** Which solubility kinetic does the source give for `COc1ccc(C/C(N)=N/OC(=O)c2ccco2)cc1OC` here?
**A.** The solubility kinetic was > 45.6 µg/mL.

**Q.** For `COc1ccc(S(=O)(=O)NCc2ccccn2)cc1OC`, which solubility kinetic is on record?
**A.** The solubility kinetic was 43 µg/mL (≈ 139 µM).

**Q.** For `O=S(=O)(Nc1ccccc1O)c1ccc(-c2ccccc2)cc1`, which solubility kinetic is on record?
**A.** Its solubility kinetic is 12.3 µg/mL (≈ 37.8 µM).

**Q.** For `OCCC1CN(Cc2ccon2)CCN1Cc1ccc(F)c(F)c1` (stereo unspecified), which solubility kinetic is on record?
**A.** Its solubility kinetic is 40.7 µg/mL (≈ 121 µM).

**Q.** With `CS(=O)(=O)N1CCc2cc(C(=O)Nc3ccccc3)ccc21` as the compound, how does the solubility kinetic read?
**A.** Its solubility kinetic is 2.3 µg/mL (≈ 7.27 µM).

**Q.** With `Cc1cccc(NC(=O)COC(=O)C2COc3ccccc3O2)c1C` (stereo unspecified) as the compound, how does the solubility kinetic read?
**A.** Its solubility kinetic is > 51.2 µg/mL.

**Q.** Which solubility kinetic does the source give for `COc1ccc(Cl)cc1C(=O)NCc1ccco1` here?
**A.** The solubility kinetic was 31.8 µg/mL (≈ 120 µM).

**Q.** With `Cc1ccc(C2(c3noc(CN(C)Cc4cccnc4)n3)CCCC2)cc1` as the compound, how does the solubility kinetic read?
**A.** Its solubility kinetic is 42.1 µg/mL (≈ 116 µM).

**Q.** For `COc1cc(/C=C/c2onc(C)c2[N+](=O)[O-])cc(OC)c1OC`, which solubility kinetic is on record?
**A.** Its solubility kinetic is < 0.3 µg/mL.

**Q.** Which solubility kinetic does the source give for `N#CCCOC1(C#CCN2CCCC2)CCCCC1` here?
**A.** Its solubility kinetic is 32.2 µg/mL (≈ 124 µM).

**Q.** Which solubility kinetic does the source give for `COc1cccc(OCC(=O)NCC2CCCO2)c1` (stereo unspecified) here?
**A.** Its solubility kinetic is > 39.8 µg/mL.

**Q.** With `N#Cc1ccc(C(=O)N2CCN(C(=O)C3CCCO3)CC2)cc1` (stereo unspecified) as the compound, how does the solubility kinetic read?
**A.** Its solubility kinetic is > 47 µg/mL.

**Q.** Which solubility kinetic does the source give for `O=C(NCCNc1ccc([N+](=O)[O-])cc1)c1ccccc1F` here?
**A.** Its solubility kinetic is 3.8 µg/mL (≈ 12.5 µM).

**Q.** With `Cc1ccsc1C(=O)NCc1ccc(Cl)cc1` as the compound, how does the solubility kinetic read?
**A.** The solubility kinetic was 1.8 µg/mL (≈ 6.77 µM).

**Q.** For `OCCN(CCO)CC(O)COc1ccc(Br)cc1` (stereo unspecified), which solubility kinetic is on record?
**A.** The solubility kinetic was 6.7 µg/mL (≈ 20 µM).

**Q.** Which solubility kinetic does the source give for `COc1ccc(C(=O)NCCCNC(=O)c2ccc(C)nc2)cc1` here?
**A.** The solubility kinetic was > 49.1 µg/mL.

**Q.** Which solubility kinetic does the source give for `O=c1[nH]cnc2ncc(-c3ccc(O)cc3)nc12` here?
**A.** The solubility kinetic was > 36 µg/mL.

**Q.** For `COc1ccc(C(=O)OCC(=O)NC(C)CCc2ccccc2)cc1` (stereo unspecified), which solubility kinetic is on record?
**A.** The solubility kinetic was 10.1 µg/mL (≈ 29.6 µM).

**Q.** Which solubility kinetic does the source give for `CCCc1cc(=O)[nH]c(SCC(=O)Nc2nonc2C)n1` here?
**A.** The solubility kinetic was > 46.4 µg/mL.

**Q.** Which solubility kinetic does the source give for `CCOC(=O)COc1c(C(=O)OC)sc2ncccc12` here?
**A.** Its solubility kinetic is 35.6 µg/mL (≈ 121 µM).

**Q.** For `Cc1c(NC(=O)[C@@H](NC(=O)c2ccc(Cl)c([N+](=O)[O-])c2)C(C)C)c(=O)n(-c2ccccc2)n1C`, which solubility kinetic is on record?
**A.** The solubility kinetic was > 72.9 µg/mL.

**Q.** Which solubility kinetic does the source give for `CCc1ccc(OCCCCCn2ccnc2)cc1` here?
**A.** Its solubility kinetic is 19.5 µg/mL (≈ 75.5 µM).

**Q.** For `COc1ccc(NC(C)=O)cc1C#N`, which solubility kinetic is on record?
**A.** The solubility kinetic was 24.5 µg/mL (≈ 129 µM).

**Q.** With `CCOC(=O)c1sc(SC)c2c1CCC/C2=N/OC` as the compound, how does the solubility kinetic read?
**A.** The solubility kinetic was 0.7 µg/mL (≈ 2.34 µM).

**Q.** For `Cc1snc(SCc2cccc(Cl)c2)c1C#N`, which solubility kinetic is on record?
**A.** Its solubility kinetic is < 0.3 µg/mL.

**Q.** For `COC(=O)c1cn(C(=O)c2cccc3ccccc23)c2ccccc12`, which solubility kinetic is on record?
**A.** The solubility kinetic was < 0.7 µg/mL.

**Q.** For `Cc1cc(C)cc(NC(=O)C2CC3CCC2C3)c1` (stereo unspecified), which solubility kinetic is on record?
**A.** Its solubility kinetic is 6.8 µg/mL (≈ 27.9 µM).

**Q.** With `CC(C(=O)OCC(=O)N1CCCCC1)N1C(=O)c2ccccc2C1=O` (stereo unspecified) as the compound, how does the solubility kinetic read?
**A.** The solubility kinetic was > 51.7 µg/mL.

**Q.** For `COc1ccc(C(=O)CNc2ccc3ccccc3c2)cc1`, which solubility kinetic is on record?
**A.** The solubility kinetic was 2.6 µg/mL (≈ 8.92 µM).

**Q.** Which solubility kinetic does the source give for `CSc1ccccc1NC(=O)COC(=O)c1cnc(C)cn1` here?
**A.** Its solubility kinetic is > 47.6 µg/mL.

**Q.** With `Cc1nc(C(=O)N2CCCC(Nc3ccc(C)c(C)c3)C2)cs1` (stereo unspecified) as the compound, how does the solubility kinetic read?
**A.** Its solubility kinetic is > 49.4 µg/mL.

**Q.** For `CCC1Oc2ccccc2N(CC(=O)NCC2CCCO2)C1=O` (stereo unspecified), which solubility kinetic is on record?
**A.** The solubility kinetic was 44.5 µg/mL (≈ 140 µM).

**Q.** For `COc1ccc(-c2noc(CN(C)Cc3ccccc3)n2)cc1`, which solubility kinetic is on record?
**A.** Its solubility kinetic is 5.7 µg/mL (≈ 18.4 µM).

**Q.** For `Cc1cccc(NC(=S)NC(=O)c2ccc(-c3ccccc3)cc2)n1`, which solubility kinetic is on record?
**A.** The solubility kinetic was 0.5 µg/mL (≈ 1.44 µM).

**Q.** For `CC(C)(C)NC(=O)NC12CC3CC(CC(C3)C1)C2`, which solubility kinetic is on record?
**A.** The solubility kinetic was 2.1 µg/mL (≈ 8.39 µM).

**Q.** Which solubility kinetic does the source give for `c1ccc(CCNC2=NCCS2)cc1` here?
**A.** Its solubility kinetic is > 30.9 µg/mL.

**Q.** For `CC(C)NC(=O)C1=NN(c2ccccc2)C(=O)CC1`, which solubility kinetic is on record?
**A.** Its solubility kinetic is > 38.9 µg/mL.

**Q.** Which solubility kinetic does the source give for `Cc1cccc(C(=O)OCC(=O)N2CCCCCC2)c1` here?
**A.** Its solubility kinetic is > 41.3 µg/mL.

**Q.** Which solubility kinetic does the source give for `Cc1cc(Sc2ncnc(N)c2[N+](=O)[O-])ncn1` here?
**A.** The solubility kinetic was > 39.6 µg/mL.

**Q.** For `CCOC(=O)/C(C#N)=C\c1cccnc1`, which solubility kinetic is on record?
**A.** The solubility kinetic was > 30.3 µg/mL.

**Q.** With `COc1ccc(C(=O)OCC(=O)c2ccc3[nH]c(=O)[nH]c3c2)c(OC)c1OC` as the compound, how does the solubility kinetic read?
**A.** The solubility kinetic was 20.3 µg/mL (≈ 52.5 µM).

**Q.** For `O=C(Nc1ccncc1)Nc1ccc(Br)cc1Cl`, which solubility kinetic is on record?
**A.** The solubility kinetic was 1.9 µg/mL (≈ 5.82 µM).

**Q.** Which solubility kinetic does the source give for `Cc1ccc(C(=O)N2C(=O)c3cccc(N)c3C2=O)o1` here?
**A.** The solubility kinetic was 3.9 µg/mL (≈ 14.4 µM).

**Q.** Which solubility kinetic does the source give for `COc1ccc(CNC(=O)CSc2nc3ccc(OC)cc3[nH]2)cc1` here?
**A.** The solubility kinetic was > 53.6 µg/mL.

**Q.** Which solubility kinetic does the source give for `CC(OC(=O)c1ccccc1O)C(=O)Nc1cccc(Cl)c1` (stereo unspecified) here?
**A.** Its solubility kinetic is 2 µg/mL (≈ 6.26 µM).

**Q.** With `CCOc1ccc(CCNC(=O)/C=C/c2ccco2)cc1OCC` as the compound, how does the solubility kinetic read?
**A.** The solubility kinetic was > 49.4 µg/mL.

**Q.** Which solubility kinetic does the source give for `O=c1c2oc3ccccc3c2ncn1Cc1ccc(F)cc1` here?
**A.** Its solubility kinetic is 0.8 µg/mL (≈ 2.72 µM).

**Q.** For `CCC(CC)C(=O)NCc1ccc(Cl)cc1`, which solubility kinetic is on record?
**A.** The solubility kinetic was > 36 µg/mL.
